Assay results published in patent US8946266B2, “Substituted triazole and imidazole derivatives as gamma secretase modulators” (Janssen Pharmaceuticals, Inc., priority 2009, dated 2015).
Like-named read-outs stand apart in the source and are kept apart here.

What was measured:
Aβ42 = assay: γ-secretase-modulating activity, Method 2: Aβ42 Alphalisa in supernatant of SKNBE2 cells carrying APP 695-wild type (Table 3b); type: cell-based; details: overnight
Protocol: (§1) Screening was carried out using SKNBE2 cells carrying the APP 695-wild type, grown in Dulbecco's Modified Eagle's Medium/Nutrient mixture F-12 (DMEM/NUT-mix F-12) (HAM) provided by Invitrogen (cat no. 10371-029) containing 5% Serum/Fe supplemented with 1% non-essential amino acids, 1-glutamine 2 mM, Hepes 15 mM, penicillin 50 U/ml (units/ml) en streptomycin 50 μg/ml. Cells were grown to near confluency.
(§2) The screening was performed using a modification of the assay as described in Citron et al (1997) Nature Medicine 3: 67. Briefly, cells were plated in a 384-well plate at 10^4 cells/well in Ultraculture (Lonza, BE12-725F) supplemented with 1% glutamine (Invitrogen, 25030-024), 1% non-essential amino acid (NEAA), penicillin 50 U/ml en streptomycin 50 μg/ml in the presence of test compound at different test concentrations. The cell/compound mixture was incubated overnight at 37° C., 5% CO2. The next day the media were assayed by two sandwich immuno-assays, for Aβ42 and Aβtotal.
(§3) Aβtotal and Aβ42 concentrations were quantified in the cell supernatant using the Aphalisa technology (Perkin Elmer). Alphalisa is a sandwich assay using biotinylated antibody attached to streptavidin coated donorbeads and antibody conjugated to acceptor beads. In the presence of antigen, the beads come into close proximity. The excitation of the donor beads provokes the release of singlet oxygen molecules that trigger a cascade of energy transfer in the acceptor beads, resulting in light emission. To quantify the amount of Aβ42 in the cell supernatant, monoclonal antibody specific to the C-terminus of Aβ42 (JRF/cAβ42/26) was coupled to the receptor beads and biotinylated antibody specific to the N-terminus of Aβ (JRF/AβN/25) was used to react with the donor beads. To quantify the amount of Aβ total in the cell supernatant, monoclonal antibody specific to the N-terminus of Aβ (JRF/AβN/25) was coupled to the receptor beads and biotinylated antibody specific to the mid region of Aβ (biotinylated 4G8) was used to react with the donor beads.
To obtain the values reported in Table 3b, the data were calculated as percentage of the maximum amount of amyloid Beta 42 measured in the absence of the test compound.
(§4) The sigmoidal dose response curves were analyzed using non-linear regression analysis with percentage of the control plotted against the log concentration of the compound. A 4-parameter equation was used to determine the IC50.
(§5) The IC50 values are shown in Table 3b (Aβtot means Aβtotal).

Aβtotal = assay: γ-secretase-modulating activity, Method 2: Aβtotal Alphalisa in supernatant of SKNBE2 cells carrying APP 695-wild type (Table 3b); type: cell-based; details: overnight, read-out: IC50 Aβtot
Protocol: as §1, §2, §3, §4, §5

Structure (SMILES) | IC50 (Aβ42) [nM] | IC50 (Aβtotal) [nM] | IC50 (Aβ42; Homo sapiens) [nM] | IC50 (Aβtotal; Homo sapiens) [nM]
COc1cc(-c2nc(Nc3ccccc3OC(C)C)n(C)n2)ccc1-n1cnc(C)c1 [Compound 367] | 78 |  |  | 
COc1cc(-c2nc(C3(c4ccc(F)cc4)CC3)n(C)n2)ccc1-n1cnc(C)c1 [Compound 47] | 302 | 3240 |  | 
COc1cc(-c2nc(Nc3ccccc3C(F)(F)F)n(C(C)C)n2)ccc1-n1cnc(C)c1 [Compound 176] | 46 | > 10000 |  | 
COc1cc(-c2nc3n(n2)CCCC3c2ccccc2C(F)(F)F)ccc1-n1cnc(C)c1 (centres unmarked) [Compound 336] | 129 | > 10000 |  | 
COc1cc(-c2nc(/C=C/c3ccc(F)cc3)n(C)n2)ccc1-n1cnc(C)c1 [Compound 45] | 85 | > 10000 |  | 
COc1cc(-c2nc(C3CCc4ccccc4N3)n(C)n2)ccc1-n1cnc(C)c1 (centres unmarked) [Compound 365] |  |  | 447 | 
COc1cc(-c2nc(Nc3cccc(C#N)c3)n(C)n2)ccc1-n1cnc(C)c1 [Compound 224] | 646 | > 10000 |  | 
COc1cc(-c2nc(Nc3cc(F)c(F)c(F)c3)n(C)n2)ccc1-n1cnc(C)c1 [Compound 48] | 245 | 6920 |  | 
COc1cc(-c2nc(-c3cccc(C(F)(F)F)c3)n(C)n2)ccc1-n1cnc(C)c1 [Compound 7] | 117 | > 10000 |  | 
COc1cc(-c2nc(Nc3cc(C(F)(F)F)cc(Cl)c3F)n(C)n2)ccc1-n1cnc(C)c1 [Compound 210] | 35 | > 10000 |  | 
COc1nc(-c2nc3n(n2)CCOC3c2cccc(F)c2C)ccc1-n1cnc(C)c1 (centres unmarked) [Compound 347] | 126 | > 10000 |  | 
COc1cc(-c2nc(Nc3cc(F)c(F)cc3I)n(C)n2)ccc1-n1cnc(C)c1 [Compound 120] | 123 | > 10000 |  | 
COc1cc(-c2nc(N3CCc4ccccc4C3)n(C(C)C)n2)ccc1-n1cnc(C)c1 [Compound 82] | 603 | 7760 |  | 
COc1cc(-c2nc(Nc3ccc(C)cc3F)n(C)n2)ccc1-n1cnc(C)c1 [Compound 352] | 60 |  |  | 
COc1cc(Nc2nc(-c3ccc(-n4cnc(C)c4)c(OC)c3)nn2C)c(F)c(C(F)(F)F)c1 [Compound 202] | 25 | > 10000 |  | 
COc1ccc(C(F)(F)F)cc1Nc1nc(-c2ccc(-n3cnc(C)c3)c(OC)n2)nn1C [Compound 201] | 15 | > 15000 |  | 
COc1nc(-c2nc3n(n2)CCC(C)C3c2ccc(F)cc2)ccc1-n1cnc(C)c1 (centres unmarked) [Compound 368] | 66 |  |  | 
COc1cc(-c2nc(/C=C/c3ccc(F)cc3)nn2C)ccc1-n1cnc(C)c1 [Compound 59] | 2950 | > 10000 |  | 
Cc1cn(-c2ccc(-c3nc(Nc4ccc(F)cc4C(F)(F)F)n(C)n3)nc2)cn1 [Compound 170] | 3240 | > 10000 |  | 
COc1cc(-c2nc(NC3CCCC(C(F)(F)F)C3)n(C)n2)ccc1-n1cnc(C)c1 (centres unmarked) [Compound 95] | 912 | > 10000 |  | 
COc1cc(-c2nc3n(n2)CCCC3c2ccccc2C)ccc1-n1cnc(C)c1 (centres unmarked) [Compound 344] | 52 | > 10000 |  | 
COc1cc(Nc2nc(-c3ccc(-n4cnc(C)c4)c(OC)c3)nn2C)ccc1Cl [Compound 191] | 28 | > 10000 |  | 
COc1cc(-c2nc(Nc3cccc(F)c3F)n(C)n2)ccc1-n1cnc(C)c1 [Compound 124] | 151 | > 10000 |  | 
COc1nc(-c2nc3n(n2)CCC[C@@H]3c2cc(C(F)(F)F)ccc2C)ccc1-n1cnc(C)c1 [Compound 342] | 162 | > 10000 |  | 
COCCOc1ccc(F)c(Nc2nc(-c3ccc(-n4cnc(C)c4)c(OC)c3)nn2C)c1 [Compound 355] | 135 |  |  | 
COc1cc(F)c(C(F)(F)F)cc1Nc1nc(-c2ccc(-n3cnc(C)c3)c(OC)c2)nn1C [Compound 220] | 63 | > 10000 |  | 
COc1cc(-c2nc(C)n(-c3ccccc3C(F)(F)F)n2)ccc1-n1cnc(C)c1 [Compound 19] |  |  | 162 | > 10000
COc1cc(-c2nc(-c3cc(C(F)(F)F)ccc3C)nn2C)ccc1-n1cnc(C)c1 [Compound 296] | 1510 | 6030 |  | 
COc1cc(-c2nc(-c3ccccc3C(F)(F)F)n(C)n2)ccc1-n1cnc(C)c1 [Compound 38] | 158 | > 10000 |  | 
